Data as given in BindingDB's records for doi:10.1021/jm960288w (Drew University, 1997).

Test: Compound was tested for inhibition of [3H]WIN-35428 binding at the dopamine transporter in brain from guinea pig striatal membrane

Row | Compound | IC50 [nM]
1 | OC1(c2ccc(Cl)cc2)c2ccccc2C2=NCCCCN21 (configuration not stated) [7-(4-Chloro-phenyl)-2,4,5,7-tetrahydro-3H-[1,3]diazepino[2,1-a]isoindol-7-ol] | 2.7
2 | OC1(c2ccc(Cl)cc2)c2ccccc2C2=NCCCN21 (configuration not stated) [9-(4-Chloro-phenyl)-1,2,3,9-tetrahydro-4,9a-diaza-fluoren-9-ol] | 4.2
